Test results from patent US9809578B2, “Pyrazolyl urea, thiourea, guanidine and cyanoguanidine compounds as trkA kinase inhibitors” (Array BioPharma Inc., priority 2012, dated 2017).

Experiments:
Format in all cases: biochemical
Conditions in all cases: 10 μM, ATP near Km
[1] = target: T1, CDK3/cyclinE (Homo sapiens, UniProt Q00526); assay: KinaseProfiler CDK3/cyclinE
T1 construct: purchased Millipore, Inc. (KinaseProfiler service)
Excerpt: (§1) The compound was run in duplicate at a concentration of ATP near the Km for each individual kinase according to Millipore's specifications.

[2] = target: T2, JAK3 (Homo sapiens, UniProt P52333); assay: KinaseProfiler JAK3
T2 construct: purchased Millipore, Inc. (KinaseProfiler service)
T2 sequence (P52333 whole entry): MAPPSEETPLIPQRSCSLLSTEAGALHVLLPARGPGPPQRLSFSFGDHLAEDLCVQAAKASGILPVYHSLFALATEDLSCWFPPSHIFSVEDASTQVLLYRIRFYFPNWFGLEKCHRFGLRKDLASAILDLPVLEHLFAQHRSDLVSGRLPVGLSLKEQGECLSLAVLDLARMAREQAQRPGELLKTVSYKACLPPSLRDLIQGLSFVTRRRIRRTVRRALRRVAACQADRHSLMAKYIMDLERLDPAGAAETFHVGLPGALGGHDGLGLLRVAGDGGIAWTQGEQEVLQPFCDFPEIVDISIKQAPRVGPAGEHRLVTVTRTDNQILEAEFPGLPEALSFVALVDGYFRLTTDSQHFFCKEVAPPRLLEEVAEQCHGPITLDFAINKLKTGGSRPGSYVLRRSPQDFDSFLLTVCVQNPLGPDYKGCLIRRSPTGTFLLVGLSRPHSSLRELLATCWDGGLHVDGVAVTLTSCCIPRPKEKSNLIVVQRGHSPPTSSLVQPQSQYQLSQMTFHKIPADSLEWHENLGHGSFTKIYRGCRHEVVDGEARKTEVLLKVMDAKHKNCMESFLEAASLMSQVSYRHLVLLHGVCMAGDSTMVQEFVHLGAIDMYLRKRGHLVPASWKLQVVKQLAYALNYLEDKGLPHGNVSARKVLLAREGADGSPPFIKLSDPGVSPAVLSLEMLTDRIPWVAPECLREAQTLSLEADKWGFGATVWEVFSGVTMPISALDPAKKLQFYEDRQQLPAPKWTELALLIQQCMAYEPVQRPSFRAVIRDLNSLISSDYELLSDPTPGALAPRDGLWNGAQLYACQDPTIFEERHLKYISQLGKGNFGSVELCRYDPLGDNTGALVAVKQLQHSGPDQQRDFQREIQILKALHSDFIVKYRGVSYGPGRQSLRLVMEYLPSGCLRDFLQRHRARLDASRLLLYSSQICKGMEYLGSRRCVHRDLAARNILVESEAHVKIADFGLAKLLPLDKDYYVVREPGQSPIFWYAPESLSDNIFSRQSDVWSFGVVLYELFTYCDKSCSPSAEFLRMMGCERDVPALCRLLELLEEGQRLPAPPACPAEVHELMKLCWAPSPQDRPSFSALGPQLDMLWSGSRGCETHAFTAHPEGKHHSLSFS
Excerpt: as §1

[3] = target: T3, Rsk2 (Homo sapiens, UniProt P51812); assay: KinaseProfiler Rsk2
T3 construct: purchased Millipore, Inc. (KinaseProfiler service)
Excerpt: as §1

[4] = target: T4, Abl2 (Homo sapiens, UniProt P42684); assay: KinaseProfiler Abl2
T4 construct: purchased Millipore (KinaseProfiler service)
Excerpt: as §1

[5] = target: T5, p38beta (Homo sapiens, UniProt Q15759); assay: KinaseProfiler p38beta
T5 construct: purchased Millipore, Inc. (KinaseProfiler service)
Excerpt: as §1

[6] = target: T6, CLK2 (Homo sapiens, UniProt P49760); assay: KinaseProfiler CLK2
T6 construct: purchased Millipore, Inc. (KinaseProfiler service)
Excerpt: as §1

[7] = target: T7, MAPKAP-K5 (Homo sapiens, UniProt Q8IW41); assay: KinaseProfiler MAPKAP-K5
T7 construct: purchased Millipore, Inc. (KinaseProfiler service)
T7 sequence (Q8IW41 whole entry): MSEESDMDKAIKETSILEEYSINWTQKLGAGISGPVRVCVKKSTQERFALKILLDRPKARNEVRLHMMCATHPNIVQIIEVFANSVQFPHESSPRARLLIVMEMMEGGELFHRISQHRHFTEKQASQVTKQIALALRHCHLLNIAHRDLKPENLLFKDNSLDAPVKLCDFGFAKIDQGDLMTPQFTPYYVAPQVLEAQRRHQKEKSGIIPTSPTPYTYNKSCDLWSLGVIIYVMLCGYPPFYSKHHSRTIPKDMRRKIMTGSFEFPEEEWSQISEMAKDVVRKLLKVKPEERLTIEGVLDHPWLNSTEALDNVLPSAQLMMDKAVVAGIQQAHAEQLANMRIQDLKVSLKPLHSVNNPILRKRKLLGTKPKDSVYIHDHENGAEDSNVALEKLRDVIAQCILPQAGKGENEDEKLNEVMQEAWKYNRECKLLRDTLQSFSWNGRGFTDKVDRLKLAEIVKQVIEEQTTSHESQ
Excerpt: as §1

[8] = target: T8, Rse (Homo sapiens, UniProt Q06418); assay: KinaseProfiler Rse
T8 construct: purchased Millipore, Inc. (KinaseProfiler service)
Excerpt: as §1

[9] = target: T9, NEK2 (Homo sapiens, UniProt P51955); assay: KinaseProfiler NEK2
T9 construct: purchased Millipore, Inc. (KinaseProfiler service)
Excerpt: as §1

[10] = target: T10, Rsk3 (Homo sapiens, UniProt Q15349); assay: KinaseProfiler Rsk3
T10 construct: purchased Millipore, Inc. (KinaseProfiler service)
T10 sequence (Q15349 whole entry): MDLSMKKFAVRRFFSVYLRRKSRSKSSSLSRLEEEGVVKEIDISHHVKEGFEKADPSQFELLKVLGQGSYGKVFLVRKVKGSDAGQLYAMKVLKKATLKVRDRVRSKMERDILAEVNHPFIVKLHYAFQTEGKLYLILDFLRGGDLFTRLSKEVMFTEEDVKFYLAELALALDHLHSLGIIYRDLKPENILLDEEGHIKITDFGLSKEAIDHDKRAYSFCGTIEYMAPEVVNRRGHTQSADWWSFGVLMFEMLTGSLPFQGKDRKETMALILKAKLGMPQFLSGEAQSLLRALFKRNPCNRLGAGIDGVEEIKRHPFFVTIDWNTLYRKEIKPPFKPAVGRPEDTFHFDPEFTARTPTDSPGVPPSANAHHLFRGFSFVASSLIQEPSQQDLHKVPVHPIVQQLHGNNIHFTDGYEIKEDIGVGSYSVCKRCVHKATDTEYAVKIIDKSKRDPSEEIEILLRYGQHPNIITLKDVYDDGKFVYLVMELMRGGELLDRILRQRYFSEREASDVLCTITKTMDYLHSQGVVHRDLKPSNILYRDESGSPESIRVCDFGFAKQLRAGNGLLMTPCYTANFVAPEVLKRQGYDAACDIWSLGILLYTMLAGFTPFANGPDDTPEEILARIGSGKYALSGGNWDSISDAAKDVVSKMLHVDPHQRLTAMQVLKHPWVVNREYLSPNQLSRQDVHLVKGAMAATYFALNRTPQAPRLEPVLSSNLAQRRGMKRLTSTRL
Excerpt: as §1

[11] = target: T11, CDK2/cyclinE (Homo sapiens, UniProt P24941); assay: KinaseProfiler CDK2/cyclinE
T11 construct: purchased Millipore, Inc. (KinaseProfiler service)
Excerpt: as §1

[12] = target: T12, PTK6 (Homo sapiens, UniProt Q13882); assay: KinaseProfiler PTK6
T12 construct: purchased Millipore, Inc. (KinaseProfiler service)
Excerpt: as §1

[13] = target: T13, EphA4 (Homo sapiens, UniProt P54764); assay: KinaseProfiler EphA4
T13 construct: purchased Millipore, Inc. (KinaseProfiler service)
Excerpt: as §1

[14] = target: T14, BLK_m (Mus musculus, UniProt P16277); assay: KinaseProfiler BLK_m
T14 construct: purchased Millipore (KinaseProfiler service)
Excerpt: as §1

[15] = target: T15, JNK3 (Homo sapiens, UniProt P53779); assay: KinaseProfiler JNK3
T15 construct: purchased Millipore, Inc. (KinaseProfiler service)
T15 sequence (P53779 whole entry): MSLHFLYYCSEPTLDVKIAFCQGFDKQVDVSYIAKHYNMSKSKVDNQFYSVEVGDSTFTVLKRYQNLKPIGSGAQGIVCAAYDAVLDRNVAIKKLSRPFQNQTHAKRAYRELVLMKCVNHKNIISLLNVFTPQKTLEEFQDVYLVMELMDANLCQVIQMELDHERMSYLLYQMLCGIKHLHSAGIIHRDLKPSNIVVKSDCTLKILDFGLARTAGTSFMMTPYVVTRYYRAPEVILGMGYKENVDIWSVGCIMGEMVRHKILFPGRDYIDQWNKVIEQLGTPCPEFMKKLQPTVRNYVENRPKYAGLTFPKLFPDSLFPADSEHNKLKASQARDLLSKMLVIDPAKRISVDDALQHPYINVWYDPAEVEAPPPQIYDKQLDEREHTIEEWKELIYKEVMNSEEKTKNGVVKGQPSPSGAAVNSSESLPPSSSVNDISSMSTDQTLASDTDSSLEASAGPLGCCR
Excerpt: as §1

[16] = target: T16, Flt4 (Homo sapiens, UniProt P35916); assay: KinaseProfiler Flt4
T16 construct: purchased Millipore, Inc. (KinaseProfiler service)
Excerpt: as §1

[17] = target: T17, Fgr (Homo sapiens, UniProt P09769); assay: KinaseProfiler Fgr
T17 construct: purchased Millipore, Inc. (KinaseProfiler service)
Excerpt: as §1

[18] = target: T18, NEK3 (Homo sapiens, UniProt P51956); assay: KinaseProfiler NEK3
T18 construct: purchased Millipore, Inc. (KinaseProfiler service)
Excerpt: as §1

[19] = target: T19, ErbB4 (Homo sapiens, UniProt Q15303); assay: KinaseProfiler ErbB4
T19 construct: purchased Millipore, Inc. (KinaseProfiler service)
Excerpt: as §1

[20] = target: T20, p38alpha (Homo sapiens, UniProt Q16539); assay: KinaseProfiler p38alpha
T20 construct: purchased Millipore, Inc. (KinaseProfiler service)
Excerpt: as §1

[21] = target: T21, TAO1 (Homo sapiens, UniProt Q7L7X3); assay: KinaseProfiler TAO1
T21 construct: purchased Millipore, Inc. (KinaseProfiler service)
Excerpt: as §1

[22] = target: T22, SGK2 (Homo sapiens, UniProt Q9HBY8); assay: KinaseProfiler SGK2
T22 construct: purchased Millipore, Inc. (KinaseProfiler service)
Excerpt: as §1

[23] = target: T23, EphB4 (Homo sapiens, UniProt P54760); assay: KinaseProfiler EphB4
T23 construct: purchased Millipore, Inc. (KinaseProfiler service)
Excerpt: as §1

[24] = target: T24, DMPK (Homo sapiens, UniProt Q09013); assay: KinaseProfiler DMPK
T24 construct: purchased Millipore, Inc. (KinaseProfiler service)
Excerpt: as §1

[25] = target: T25, PKCzeta (Homo sapiens, UniProt Q05513); assay: KinaseProfiler PKCzeta
T25 construct: purchased Millipore, Inc. (KinaseProfiler service)
Excerpt: as §1

[26] = target: T26, Fer (Homo sapiens, UniProt P16591); assay: KinaseProfiler Fer
T26 construct: purchased Millipore, Inc. (KinaseProfiler service)
Excerpt: as §1

[27] = target: T27, IGF-1R Activated (Homo sapiens, UniProt P08069); assay: KinaseProfiler IGF-1R Activated
T27 construct: purchased Millipore, Inc. (KinaseProfiler service)
T27 sequence (P08069 959-1367 limits assumed): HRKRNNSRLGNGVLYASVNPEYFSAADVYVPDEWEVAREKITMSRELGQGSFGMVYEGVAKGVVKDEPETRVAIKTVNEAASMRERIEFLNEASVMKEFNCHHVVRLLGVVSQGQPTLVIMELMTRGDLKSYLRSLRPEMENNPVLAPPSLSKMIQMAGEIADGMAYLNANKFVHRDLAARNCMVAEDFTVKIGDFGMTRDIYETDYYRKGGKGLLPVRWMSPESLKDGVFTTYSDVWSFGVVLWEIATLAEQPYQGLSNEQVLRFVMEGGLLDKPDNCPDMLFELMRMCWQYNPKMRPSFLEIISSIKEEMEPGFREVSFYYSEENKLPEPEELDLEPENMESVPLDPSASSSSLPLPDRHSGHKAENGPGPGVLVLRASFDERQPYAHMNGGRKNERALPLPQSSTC
Excerpt: as §1

[28] = target: T28, MSK2 (Homo sapiens, UniProt O75676); assay: KinaseProfiler MSK2
T28 construct: purchased Millipore, Inc. (KinaseProfiler service)
Excerpt: as §1

[29] = target: T29, ALK (Homo sapiens, UniProt Q9UM73); assay: KinaseProfiler ALK
T29 construct: purchased Millipore (KinaseProfiler service)
Excerpt: as §1

[30] = target: T30, GRK6 (Homo sapiens, UniProt P43250); assay: KinaseProfiler GRK6
T30 construct: purchased Millipore, Inc. (KinaseProfiler service)
Excerpt: as §1

[31] = target: T31, BrSK2 (Homo sapiens, UniProt Q8IWQ3); assay: KinaseProfiler BrSK2
T31 construct: purchased Millipore (KinaseProfiler service)
Excerpt: as §1

[32] = target: T32, DRAK1 (Homo sapiens, UniProt Q9UEE5); assay: KinaseProfiler DRAK1
T32 construct: purchased Millipore, Inc. (KinaseProfiler service)
Excerpt: as §1

[33] = target: T33, MSK1 (Homo sapiens, UniProt O75582); assay: KinaseProfiler MSK1
T33 construct: purchased Millipore, Inc. (KinaseProfiler service)
Excerpt: as §1

[34] = target: T34, AKT3 (Homo sapiens, UniProt Q9Y243); assay: KinaseProfiler AKT3
T34 construct: purchased Millipore (KinaseProfiler service)
T34 sequence (Q9Y243 whole entry): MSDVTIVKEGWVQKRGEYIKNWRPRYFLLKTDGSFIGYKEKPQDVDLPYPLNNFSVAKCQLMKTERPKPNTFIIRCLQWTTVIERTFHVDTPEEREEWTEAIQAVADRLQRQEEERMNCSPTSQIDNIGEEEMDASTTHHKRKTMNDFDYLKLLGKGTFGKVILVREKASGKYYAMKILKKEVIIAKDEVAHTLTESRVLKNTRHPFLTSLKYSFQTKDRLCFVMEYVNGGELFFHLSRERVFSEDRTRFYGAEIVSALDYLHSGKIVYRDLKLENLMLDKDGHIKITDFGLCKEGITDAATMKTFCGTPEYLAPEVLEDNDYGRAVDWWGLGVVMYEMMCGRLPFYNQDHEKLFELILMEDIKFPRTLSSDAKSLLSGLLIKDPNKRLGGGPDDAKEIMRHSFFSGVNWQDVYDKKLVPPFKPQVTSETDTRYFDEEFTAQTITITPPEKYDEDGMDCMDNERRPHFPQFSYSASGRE
Excerpt: as §1

[35] = target: T35, p38delta (Homo sapiens, UniProt O15264); assay: KinaseProfiler p38delta
T35 construct: purchased Millipore, Inc. (KinaseProfiler service)
Excerpt: as §1

[36] = target: T36, JNK2alpha2 (Homo sapiens, UniProt P45984); assay: KinaseProfiler JNK2alpha2
T36 construct: purchased Millipore, Inc. (KinaseProfiler service)
T36 sequence (P45984 whole entry): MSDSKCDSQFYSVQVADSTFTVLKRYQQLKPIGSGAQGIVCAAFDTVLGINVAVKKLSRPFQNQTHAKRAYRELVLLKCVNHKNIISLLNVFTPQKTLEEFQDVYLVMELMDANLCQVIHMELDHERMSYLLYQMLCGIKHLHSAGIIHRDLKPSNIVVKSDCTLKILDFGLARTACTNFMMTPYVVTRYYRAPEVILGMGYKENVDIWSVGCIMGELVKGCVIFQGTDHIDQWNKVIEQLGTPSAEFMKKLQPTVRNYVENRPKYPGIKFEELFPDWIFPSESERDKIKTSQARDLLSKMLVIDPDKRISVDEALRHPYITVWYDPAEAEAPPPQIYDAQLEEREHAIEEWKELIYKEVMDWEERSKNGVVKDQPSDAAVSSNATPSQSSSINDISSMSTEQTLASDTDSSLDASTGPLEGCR
Excerpt: as §1

[37] = target: T37, c-RAF (Homo sapiens, UniProt P04049, Y340D/Y341D); assay: KinaseProfiler c-RAF
T37 construct: purchased Millipore, Inc. (KinaseProfiler service)
Excerpt: as §1

[38] = target: T38, SGK3 (Homo sapiens, UniProt Q96BR1); assay: KinaseProfiler SGK3
T38 construct: purchased Millipore, Inc. (KinaseProfiler service)
Excerpt: as §1

[39] = target: T39, mTOR/FKBP12 (Homo sapiens, UniProt P42345); assay: KinaseProfiler mTOR/FKBP12
T39 construct: purchased Millipore, Inc. (KinaseProfiler service)
Excerpt: as §1

[40] = target: T40, MSSK1 (Homo sapiens, UniProt Q9UPE1); assay: KinaseProfiler MSSK1
T40 construct: purchased Millipore, Inc. (KinaseProfiler service)
Excerpt: as §1

[41] = target: T41, PRK2 (Homo sapiens, UniProt Q16513); assay: KinaseProfiler PRK2
T41 construct: purchased Millipore, Inc. (KinaseProfiler service)
Excerpt: as §1

[42] = target: T42, Plk1 (Homo sapiens, UniProt P53350); assay: KinaseProfiler Plk1
T42 construct: purchased Millipore, Inc. (KinaseProfiler service)
T42 sequence (P53350 whole entry): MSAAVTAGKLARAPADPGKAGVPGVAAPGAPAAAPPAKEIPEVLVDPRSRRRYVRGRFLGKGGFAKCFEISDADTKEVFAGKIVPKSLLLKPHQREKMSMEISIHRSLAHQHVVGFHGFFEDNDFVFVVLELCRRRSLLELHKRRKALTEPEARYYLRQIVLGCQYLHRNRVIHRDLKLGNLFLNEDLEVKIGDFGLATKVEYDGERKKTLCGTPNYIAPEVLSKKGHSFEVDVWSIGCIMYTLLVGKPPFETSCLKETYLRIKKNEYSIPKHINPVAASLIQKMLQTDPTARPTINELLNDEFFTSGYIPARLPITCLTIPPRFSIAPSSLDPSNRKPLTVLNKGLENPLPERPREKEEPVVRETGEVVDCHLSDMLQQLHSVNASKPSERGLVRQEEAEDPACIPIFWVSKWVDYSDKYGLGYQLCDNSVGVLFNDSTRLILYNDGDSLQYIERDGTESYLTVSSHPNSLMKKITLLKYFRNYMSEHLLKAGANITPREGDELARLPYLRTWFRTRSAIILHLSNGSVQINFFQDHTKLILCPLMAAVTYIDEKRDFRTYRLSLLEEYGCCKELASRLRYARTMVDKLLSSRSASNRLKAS
Excerpt: as §1

[43] = target: T43, KDR (Homo sapiens, UniProt P35968); assay: KinaseProfiler KDR
T43 construct: purchased Millipore, Inc. (KinaseProfiler service)
Excerpt: as §1

Cc1c(-c2cnn(C)c2)nn(-c2ccccc2)c1NC(=O)Nc1cc(C(F)(F)F)nn1-c1ccccc1 [Example 3, 1-(1′,4-dimethyl-1-phenyl-1H,1′H-[3,4′-bipyrazol]-5-yl)-3-(1-phenyl-3-(trifluoromethyl)-1H-pyrazol-5-yl)urea]
Avg POC [1]: 103 POC
Avg POC [2]: 117.5 POC
Avg POC [3]: 134 POC
Avg POC [4]: 148.5 POC
Avg POC [5]: 102 POC
Avg POC [6]: 135 POC
Avg POC [7]: 108.5 POC
Avg POC [8]: 106.5 POC
Avg POC [9]: 125.5 POC
Avg POC [10]: 104.5 POC
Avg POC [11]: 106.5 POC
Avg POC [12]: 110 POC
Avg POC [13]: 106.5 POC
Avg POC [14]: 108.5 POC
Avg POC [15]: 124.5 POC
Avg POC [16]: 80.5 POC
Avg POC [17]: 118 POC
Avg POC [18]: 105.5 POC
Avg POC [19]: 126 POC
Avg POC [20]: 93 POC
Avg POC [21]: 119 POC
Avg POC [22]: 159.5 POC
Avg POC [23]: 116 POC
Avg POC [24]: 105 POC
Avg POC [25]: 103 POC
Avg POC [26]: 92.5 POC
Avg POC [27]: 87 POC
Avg POC [28]: 119.5 POC
Avg POC [29]: 110 POC
Avg POC [30]: 105 POC
Avg POC [31]: 135 POC
Avg POC [32]: 129 POC
Avg POC [33]: 152.5 POC
Avg POC [34]: 99 POC
Avg POC [35]: 92.5 POC
Avg POC [36]: 99.5 POC
Avg POC [37]: 94.5 POC
Avg POC [38]: 133 POC
Avg POC [39]: 92.5 POC
Avg POC [40]: 140 POC
Avg POC [41]: 106.5 POC
Avg POC [42]: 95 POC
Avg POC [43]: 115.5 POC
